# Measured values published in patent publication US10800784B2, “Nitrogen-containing heterocyclic amide compound and pharmaceutical use thereof” (Japan Tobacco Inc., priority 2018, dated 2020).
# Experiments:
# [1] = biological target: human PDHK2 (hPDHK2) (Homo sapiens (Human), UniProt Q15119); test: Inhibitory action of PDHK2 activity in vitro (residual PDH activity after PDHK reaction); assay type: biochemical; details: for IC50: PDH/hPDHK2 complex solution, PDHK reaction at room temperature for 45 min, NADH absorbance at 340 nm, read-out: kPDK2 IC50
# Procedure: (§1) The inhibitory action of PDHK activity was assessed indirectly by measuring the residual PDH activity after PDHK reaction in the presence of a test compound.
# (Inhibitory Action of PDHK2 Activity)
# In the case of human PDHK2 (hPDHK2, NCBI Reference Database Accession number NM_002611.4), modified hPDHK2 cDNA wherein FLAG-Tag sequence was added to the N terminus of hPDHK2 cDNA clone (pReceiver-M01/PDK2-GeneCopoeia) as the base was prepared by PCR and ligated to the NdeI/EcoRI site of pET-17b vector. The recombinant construct was transformed into Escherichia coli DH5a. The recombinant clones were identified, and plasmid DNA was isolated and subjected to the DNA sequence analysis. One clone which had the expected nucleic acid sequence was selected for expression work.
# For expression of hPDHK2 activity, Escherichia coli strain BL21(DE3) cells were transformed with the pET17b vector containing modified hPDHK2 cDNA. The Escherichia coli were grown to an optical density 0.6 ([…]) at 30° C. Protein expression was induced by the addition of 500 μmol/L isopropyl-β-thiogalactopyranoside. The Escherichia coli were cultured at 20° C. for 17-18 hr and harvested by centrifugation. The harvested Escherichia coli was resuspended in a suspension buffer (20 mmol/L HEPES-NaOH, 500 mmol/L sodium chloride, 1% ethylene glycol, 0.1% pluronic F-68 (pH 8.0), cOmplete, EDTA-free (pH 8.0)), and disrupted by a microfluidizer. The precipitate was removed by centrifugation and the supernatant was added to DDDDK-tagged Protein PURIFICATION GEL. DDDDK-tagged Protein PURIFICATION GEL was washed with a washing buffer (20 mmol/L HEPES-NaOH, 500 mmol/L sodium chloride, 1% ethylene glycol, 0.1% pluronic F-68 (pH 8.0)) and the bound protein was eluted with elution buffer 1 (20 mmol/L HEPES-NaOH, 100 μg/mL peptide (amino acid sequence DYKDDDDK) (SEQ ID NO: 1), 500 mmol/L sodium chloride, 1% ethylene glycol, 0.1% pluronic F-68 (pH 8.0)). The eluted fractions containing FLAG-Tagged protein were pooled, concentrated by an ultrafiltration method, added to a gel filtration column (HiLoad 26/60 Superdex 200), and eluted with elution buffer 2 (20 mmol/L HEPES-NaOH, 150 mmol/L sodium chloride, 0.5 mmol/L ethylenediaminetetraacetic acid (EDTA), 1% ethylene glycol, 0.1% pluronic F-68 (pH 8.0)). The eluted fractions were pooled and preserved at −80° C.
# 0.025 U/mL PDH and 0.5 μg/mL hPDHK2 were mixed in an assay buffer (50 mmol/L 3-morpholinopropanesulfonic acid (pH 7.0), 20 mmol/L dipotassium hydrogen phosphate, 60 mmol/L potassium chloride, 2 mmol/L magnesium chloride, 0.4 mmol/L EDTA, 0.2% poloxamer, 2 mmol/L dithiothreitol), and the mixture was incubated at 4° C. overnight to obtain a PDH/hPDHK2 complex solution. In the assay buffer, 0.025 U/mL PDH was mixed and incubated at 4° C. overnight to prepare a PDH solution.
# The test compounds were diluted with DMSO. To measure an inhibitory action of the test compound on the PDHK activity in the PDH/hPDHK2 complex solution, PDH/hPDHK2 complex solution (20 μL), test compound (1.5 μL) and 1.06 μmol/L ATP (diluted with assay buffer) (8.5 μL) were added to a 384 well microplate and PDHK reaction was performed at room temperature for 45 min (test compound well). DMSO (1.5 μL) was added to control wells instead of test compound. In addition, DMSO (1.5 μL) was added to blank wells instead of the test compound, and PDH solution was added instead of the PDH/hPDHK2 complex solution. To measure an inhibitory action of the test compound on the PDHK activity inherent in the PDH solution, a test compound was added and the PDH solution instead of the PDH/hPDHK2 complex solution was added to a blank+test compound well.
# Then, 10 μL of substrates (5 mmol/L sodium pyruvate, 5 mmol/L Coenzyme A, 12 mmol/L NAD, 5 mmol/L thiamine pyrophosphate, diluted with assay buffer) were added. The mixture was incubated at room temperature for 90 min, and the residual PDH activity was measured. […]
# [2] = biological target: human PDHK1 (hPDHK1) (Homo sapiens (Human), UniProt Q15118); test: Inhibitory action of PDHK1 activity in vitro (residual PDH activity after PDHK reaction); assay type: biochemical; details: PDH/hPDHK1 complex solution, PDHK reaction at room temperature for 45 min, NADH absorbance at 340 nm; read-out: hPDK1 IC50
# Chain of human PDHK1 (hPDHK1) (Q15118 29-436): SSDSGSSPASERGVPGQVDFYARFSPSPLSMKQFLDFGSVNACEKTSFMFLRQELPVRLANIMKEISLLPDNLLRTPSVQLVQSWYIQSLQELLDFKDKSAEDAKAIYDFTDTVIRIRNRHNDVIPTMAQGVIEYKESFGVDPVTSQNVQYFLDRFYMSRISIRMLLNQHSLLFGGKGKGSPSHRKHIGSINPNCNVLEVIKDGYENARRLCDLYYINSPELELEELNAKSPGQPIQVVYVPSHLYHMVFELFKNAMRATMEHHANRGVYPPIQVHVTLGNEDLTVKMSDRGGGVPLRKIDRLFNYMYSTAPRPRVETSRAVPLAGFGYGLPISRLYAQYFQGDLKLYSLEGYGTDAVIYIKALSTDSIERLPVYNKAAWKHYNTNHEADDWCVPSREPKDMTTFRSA
# Procedure: as §1
# (Inhibitory Action of PDHK1 Activity)
# In the case of human PDHK1 (hPDHK1, NCBI Reference Database Accession number NM_002610.3), a 1.3 kbp fragment encoding this protein was isolated from human liver cDNA by polymerase chain reaction (PCR). Modified hPDHK1 cDNA wherein FLAG-Tag sequence was added to the N terminus was prepared by PCR and ligated to the NdeI/EcoRI site of pET-17b vector (Merck MGaA, model number 69663-3). The recombinant construct was transformed into Escherichia coli DH5a (TOYOBO, model number DNA-903). The recombinant clones were identified, and plasmid DNA was isolated and subjected to the DNA sequence analysis. One clone which had the expected nucleic acid sequence was selected for expression work.
# For expression of hPDHK1 activity, Escherichia coli strain BL21(DE3) cells (Merck KGaA, model number 69450-4) were transformed with the pET17b vector containing modified hPDHK1 cDNA. The Escherichia coli were grown to an optical density 0.6 ([…]) at 30° C. Protein expression was induced by the addition of 500 μmol/L isopropyl-β-thiogalactopyranoside. The Escherichia coli were cultured at 20° C. for 17-18 hr and harvested by centrifugation.
# The harvested Escherichia coli was resuspended in a suspension buffer (20 mmol/L N-(2-hydroxyethyl)piperazine-N′-2-ethanesulfonic acid-sodium hydroxide (HEPES-NaOH), 500 mmol/L sodium chloride, 1% ethylene glycol, and 0.1% polyoxyethylene-polyoxypropylene block copolymer (Pluronic F-68), complete, EDTA-free (pH 8.0)) and disrupted by a microfluidizer M-110H (MIZUHO INDUSTRIAL CO., LTD.) or ultrasonication. The precipitate was removed by centrifugation and the supernatant was added to DDDDK-tagged Protein PURIFICATION GEL (MBL, model number 3329). DDDDK-tagged Protein PURIFICATION GEL was washed with a washing buffer (20 mmol/L HEPES-NaOH, 500 mmol/L sodium chloride, 1% ethylene glycol, 0.1% pluronic F-68 (pH 8.0)) and the bound protein was eluted with elution buffer 1 (20 mmol/L HEPES-NaOH, 100 μg/mL peptide (amino acid sequence DYKDDDDK) (SEQ ID NO: 1), 500 mmol/L sodium chloride, 1% ethylene glycol, 0.1% pluronic F-68 (pH 8.0)).
# The eluted fractions containing FLAG-Tagged protein were pooled, concentrated by an ultrafiltration method, added to a gel filtration column (HiLoad 26/60 Superdex 200 (GE Healthcare, model number 17-1070-01)), and eluted with elution buffer 2 (20 mmol/L HEPES-NaOH, 150 mmol/L sodium chloride, 0.5 mmol/L ethylenediaminetetraacetic acid (EDTA), 1% ethylene glycol, 0.1% pluronic F-68 (pH 8.0)). The eluted fractions were pooled and preserved at −80° C.
# 0.025 U/mL PDH (porcine heart PDH complex, Sigma P7032) and 0.5 μg/mL hPDHK1 were mixed in an assay buffer (50 mmol/L 3-morpholinopropanesulfonic acid (pH 7.0), 20 mmol/L dipotassium hydrogen phosphate, 60 mmol/L potassium chloride, 2 mmol/L magnesium chloride, 0.4 mmol/L EDTA, 0.2% poloxamer, 2 mmol/L dithiothreitol), and the mixture was incubated at 4° C. overnight to obtain a PDH/hPDHK1 complex solution. In the assay buffer, 0.025 U/mL PDH was mixed and incubated at 4° C. overnight to prepare a PDH solution.
# The test compounds were diluted with dimethyl sulfoxide (DMSO). To measure an inhibitory action of the test compound on the PDHK activity in the PDH/hPDHK1 complex solution, PDH/hPDHK1 complex solution (20 μL), test compound (1.5 μL) and 0.353 μmol/L ATP (diluted with assay buffer) (8.5 μL) were added to a 384 well microplate (Greiner Bio-One 781801) and PDHK reaction was performed at room temperature for 45 min (test compound well). DMSO (1.5 μL) was added to control wells instead of test compound. In addition, DMSO (1.5 μL) was added to blank wells instead of the test compound, and PDH solution was added instead of the PDH/hPDHK1 complex solution. […]
SMILES,IC50 [1] [nM],IC50 [2] [nM],"hPDHK2 inhibitory rate at the lowest concentration of the test compound ([1]; lowest concentration of the test compound in the assay (<3 nmol/L), shown when IC50 value could not be calculated) [%]"
C[C@H]1CN(C(=O)c2cc(C3CCOCC3)nn2C)Cc2cnc([C@@](C)(O)C(F)(F)F)n21 [Example 20],12,8,
C[C@H]1CN(C(=O)c2cc(C3CC3)on2)Cc2cnc([C@@](C)(O)C(F)(F)F)n21 [Example 21],12,13,
C[C@H]1CN(C(=O)c2ccc(F)c(C3CC3)n2)Cc2cnc([C@@](C)(O)C(F)(F)F)n21 [Example 23],12,6,
C[C@H]1CN(C(=O)c2ccc(=O)n(C3CC3)c2)Cc2cnc([C@@](C)(O)C(F)(F)F)n21 [Example 24],36,42,
COc1ccc(-c2cc(C(=O)N3Cc4cnc([C@@](C)(O)C(F)(F)F)n4[C@@H](C)C3)no2)cc1 [Example 25],14,7,
C[C@H]1CN(C(=O)c2cc(-c3ccc(F)cc3)on2)Cc2cnc([C@@](C)(O)C(F)(F)F)n21 [Example 26],14,9,
C[C@H]1CN(C(=O)c2ccc(C3CC3)nc2)Cc2cnc([C@@](C)(O)C(F)(F)F)n21 [Example 30],13,20,
C[C@H]1CN(C(=O)c2cc(-c3ccc(C#N)cc3)n(C)n2)Cc2cnc([C@@](C)(O)C(F)(F)F)n21 [Example 33],16,12,
C[C@H]1CN(C(=O)c2cc(-c3ccc(F)cc3)n[nH]2)Cc2cnc([C@@](C)(O)C(F)(F)F)n21 [Example 34],13,10,

# The next compounds have a lower IC50 [1] than those just listed; values first:
IC50 [1] [nM],IC50 [2] [nM],"hPDHK2 inhibitory rate at the lowest concentration of the test compound ([1]; lowest concentration of the test compound in the assay (<3 nmol/L), shown when IC50 value could not be calculated) [%]",SMILES
7,6,,"C[C@H]1CN(C(=O)c2cc(-c3ccc(F)cc3)nn2C)Cc2cnc([C@@](C)(O)C(F)(F)F)n21 [Example 16, (3-(4-fluorophenyl)-1-methyl-1H-pyrazol-5-yl) ((S)-5-methyl-3-((R)-1,1,1-trifluoro-2-hydroxypropan-2-yl)-5,6-dihydroimidazo[1,5-a]pyrazin-7(8H)-yl)methanone]"
7,8,,C[C@H]1CN(C(=O)c2cnn(-c3ccc(F)cc3)c2C(F)(F)F)Cc2cnc([C@@](C)(O)C(F)(F)F)n21 [Example 17]
7,7,,C[C@H]1CN(C(=O)c2ccc(C3CC3)cc2)Cc2cnc([C@@](C)(O)C(F)(F)F)n21 [Example 18]
< 3,5,67,C[C@H]1CN(C(=O)c2c(C#N)c(C3CC3)nn2C)Cc2cnc([C@@](C)(O)C(F)(F)F)n21 [Example 19]
8,6,,C[C@H]1CN(C(=O)c2c(Cl)c(C3CC3)nn2C)Cc2cnc([C@@](C)(O)C(F)(F)F)n21 [Example 22]
8,9,,C[C@H]1CN(C(=O)c2ccc(F)cc2C2CC2)Cc2cnc([C@@](C)(O)C(F)(F)F)n21 [Example 27]
10,12,,C[C@H]1CN(C(=O)c2ccc(C#N)c(C3CC3)c2)Cc2cnc([C@@](C)(O)C(F)(F)F)n21 [Example 28]
7,7,,C[C@H]1CN(C(=O)c2cc(C3CC3)nn2C2CC2)Cc2cnc([C@@](C)(O)C(F)(F)F)n21 [Example 29]
11,9,,C[C@H]1CN(C(=O)c2cc(-c3ccc(C#N)cc3)nn2C)Cc2cnc([C@@](C)(O)C(F)(F)F)n21 [Example 31]
10,13,,C[C@H]1CN(C(=O)c2ccnn2C2CC2)Cc2cnc([C@@](C)(O)C(F)(F)F)n21 [Example 32]
4,3,,C[C@H]1CN(C(=O)c2cc(-c3ccc(C#N)cc3)nn2C2CC2)Cc2cnc([C@@](C)(O)C(F)(F)F)n21 [Example 35]
5,4,,C[C@H]1CN(C(=O)c2cc(C3CC3)nn2CC(F)(F)F)Cc2cnc([C@@](C)(O)C(F)(F)F)n21 [Example 36]
8,3,,C[C@H]1CN(C(=O)c2cc(C3CC3)n(CC(F)(F)F)n2)Cc2cnc([C@@](C)(O)C(F)(F)F)n21 [Example 37]
